This note sets out measurements from patent US7723523B2, “Tetrahydropyridothiophenes” (4SC AG, priority 2004, dated 2010).

A value given as a limit tells only on which side of the number the result lay.

For assay [1], the system named is RKO (RKOp27) human colon adenocarcinoma cells. The experiment in a line: Alamar Blue cell viability assay, anti-proliferative/cytotoxic activity on proliferating RKOp27 cells. Type of assay: cell-based. Particulars: absence of Ponasterone A, 72 hours incubation, read-out: IC50 RKO p27 proliferating. In a few lines:
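IC50 values come from concentration-effect curves of Alamar Blue fluorescence (544/590 nm), relative to untreated controls set at 100%. Cells were RKOp27, seeded at 4000/well in DMEM with 10% FCS and exposed from 24 h post-seeding for 72 h (37 °C, 5% CO2) to semi-log dilutions, each run in quadruplicate.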

For assay [2], the system named is RKO colon adenocarcinoma cells (RKOp27) arrested by expression of ectopic p27Kip1. The assay is described as follows: Alamar Blue cell viability assay on RKOp27 cells arrested by Ponasterone A-induced p27Kip1 (cell cycle specific mode of action). Particulars: Homo sapiens, RKOp27, 72 h, cells arrested by p27Kip1 induced with 10 μM Ponasterone A, 72 hours incubation, read-out: IC50 RKO p27 arrested. Type of assay: cell-based. In a few lines: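 Viability measured by Alamar Blue fluorescence (ex 544, em 590 nm) after 72 h, 37 °C compound exposure in quadruplicate, normalized to untreated cells as 100%. Cells were p27Kip1-arrested RKOp27, induced with 10 μM Ponasterone A at seeding; compound added 24 h later.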
On the technique in general: Alamar Blue is a resazurin reagent that responds to reducing activity.

In general, IC50 refers to the concentration at which inhibition is half-maximal. Consider `CCOC(=O)CC(=O)N1CCc2c(sc(NC(=O)/C=C/c3ccccc3)c2C#N)C1` [Example 176, 3-[3-Cyano-2-((E)-3-phenyl-allanoylamino)-4,7-dihydro-5H-thieno[2,3-c]pyridin-6-yl]-3-oxo-propionic acid ethyl ester], for which the IC50 in assay [1] was not above 2 µM; in assay [2] it was not below 100 µM.

Regarding `COCCOCCOC(=O)N1CCc2c(sc(NC(=O)/C=C/c3ccccc3)c2C#N)C1` [Example 129, 3-Cyano-2-((E)-3-phenyl-allanoylamino)-4,7-dihydro-5H-thieno[2,3-c]pyridine-6-carboxylic acid 2-(2-methoxy-ethoxy)-ethyl ester], the values for the IC50 in assay [1] and in assay [2] were not above 2 µM and not below 100 µM, respectively.

As for `CCOC(=O)N1CCc2c(sc(NC(=O)/C=C/c3cc(OC)ccc3OC)c2C#N)C1` [Example 102, 3-Cyano-2-[(E)-3-(2,5-dimethoxy-phenyl)-allanoylamino]-4,7-dihydro-5H-thieno[2,3-c]pyridine-6-carboxylic acid ethyl ester], the IC50 was not above 2 µM in assay [1] and not below 100 µM in assay [2].

Turning to `CCOc1ccccc1/C=C/C(=O)Nc1sc2c(c1C#N)CCN(C(=O)CCn1ccnc1)C2` [Example 224, (E)-N-[3-Cyano-6-(3-imidazol-1-yl-propanoyl)-4,5,6,7-tetrahydro-thieno[2,3-c]pyridin-2-yl]-3-(2-ethoxy-phenyl)-acrylamide], the IC50 was not above 2 µM in assay [1] and not below 100 µM in assay [2].

With `N#Cc1c(NC(=O)/C=C/c2cccnc2)sc2c1CCN(C(=O)OCCc1ccccn1)C2` [Example 158, 3-Cyano-2-((E)-3-pyridin-3-yl-allanoylamino)-4,7-dihydro-5H-thieno[2,3-c]pyridine-6-carboxylic acid 2-pyridin-2-ylethyl ester], the IC50 was not above 2 µM in assay [1] and not below 100 µM in assay [2].

As to `CCOC(=O)N1CCc2c(sc(NC(=O)/C=C/c3ccccc3Br)c2C#N)C1` [Example 66, 2-[(E)-3-(2-Bromo-phenyl)-allanoylamino]-3-cyano-4,7-dihydro-5H-thieno[2,3-c]pyridine-6-carboxylic acid ethyl ester], the IC50 in assay [1] was not above 2 µM; in assay [2] it was not below 100 µM.

For the compound `CCOC(=O)N1CCc2c(sc(NC(=O)/C=C/c3ccccn3)c2C#N)C1` [Example 100, 3-Cyano-2-((E)-3-pyridin-2-yl-allanoylamino)-4,7-dihydro-5H-thieno[2,3-c]pyridine-6-carboxylic acid ethyl ester], the IC50 in assay [1] is not above 2 µM; in assay [2], not below 100 µM.

On to `CCOC(=O)N1CCc2c(sc(NC(=O)/C=C/c3ccccc3C#N)c2C#N)C1` [Example 83, 3-Cyano-2-[(E)-3-(2-cyano-phenyl)-allanoylamino]-4,7-dihydro-5H-thieno[2,3-c]pyridine-6-carboxylic acid ethyl ester], for which the IC50 in assay [1] is not above 2 µM; in assay [2], not below 100 µM.

On to `CCSC(=O)N1CCc2c(sc(NC(=O)/C=C/c3ccccc3Cl)c2C#N)C1` [Example 48, 2-[(E)-3-(2-Chloro-phenyl)-allanoylamino]-3-cyano-4,7-dihydro-5H-thieno[2,3-c]pyridine-6-carbothioic acid S-ethyl ester], for which the figures for the IC50 in assay [1] and in assay [2] were not above 2 µM and not below 100 µM, respectively.

As to `N#Cc1c(NC(=O)/C=C/c2ccccc2)sc2c1CCN(C(=O)OCCc1ccccn1)C2` [Example 116, 3-Cyano-2-((E)-3-phenyl-allanoylamino)-4,7-dihydro-5H-thieno[2,3-c]pyridine-6-carboxylic acid 2-pyridin-2-yl-ethyl ester], the values for the IC50 in assay [1] and in assay [2] were not above 2 µM and not below 100 µM, respectively.

Take `N#Cc1c(NC(=O)/C=C/c2cccnc2)sc2c1CCN(C(=O)OCc1ccncc1)C2` [Example 160, 3-Cyano-2-((E)-3-pyridin-3-yl-allanoylamino)-4,7-dihydro-5H-thieno[2,3-c]pyridin-6-carboxylic acid pyridin-4-ylmethyl ester]: the figures for the IC50 in assay [1] and in assay [2] were not above 2 µM and not below 100 µM, respectively.

Consider `COc1cccc(CCOC(=O)N2CCc3c(sc(NC(=O)/C=C/c4cccnc4)c3C#N)C2)c1` [Example 152, 3-Cyano-2-((E)-3-pyridin-3-yl-allanoylamino)-4,7-dihydro-5H-thieno[2,3-c]pyridine-6-carboxylic acid 2-(3-methoxy-phenyl)-ethyl ester], for which the IC50 in assay [1] is not above 2 µM; in assay [2], not below 100 µM.

Consider `COC(=O)N1CCc2c(sc(NC(=O)/C=C/c3cccnc3)c2C#N)C1` [Example 44, 3-Cyano-2-((E)-3-pyridin-3-yl-allanoylamino)-4,7-dihydro-5H-thieno[2,3-c]pyridine-6-carboxylic acid methyl ester], for which the IC50 in assay [1] was not above 2 µM; in assay [2] it was more than 100 µM.

As for `N#Cc1c(NC(=O)/C=C/c2ccccc2Cl)sc2c1CCN(C(=O)Cc1ccncc1)C2` [Example 214, (E)-3-(2-Chloro-phenyl)-N-[3-cyano-6-(2-pyridin-4-yl-ethanoyl)-4,5,6,7-tetrahydro-thieno[2,3-c]pyridin-2-yl]-acrylamide], the IC50 in assay [1] is not above 2 µM; in assay [2], not below 100 µM.

For `N#Cc1c(NC(=O)/C=C/c2ccccc2)sc2c1CCN(C(=O)OCCN1CCCC1)C2` [Example 114], the results for the IC50 in assay [1] and in assay [2] were not above 2 µM and not below 100 µM, respectively.

Consider `N#Cc1c(NC(=O)/C=C/c2ccccc2Cl)sc2c1CCN(C(=O)Cc1ccccn1)C2` [Example 212, (E)-3-(2-Chloro-phenyl)-N-[3-cyano-6-(2-pyridin-2-yl-ethanoyl)-4,5,6,7-tetrahydro-thieno[2,3-c]pyridin-2-yl]-acrylamide], for which the IC50 in assay [1] is not above 2 µM; in assay [2] it was not below 100 µM.

Regarding `CCCC(=O)N1CCc2c(sc(NC(=O)/C=C/c3cccnc3)c2C#N)C1` [Example 39, (E)-N-(6-Butyryl-3-cyano-4,5,6,7-tetrahydro-thieno[2,3-c]pyridin-2-yl)-3-pyridin-3-yl-acrylamide], the IC50 in assay [1] is not above 2 µM; in assay [2], more than 100 µM.

In the case of `CCOC(=O)N1CCc2c(sc(NC(=O)/C=C/c3cccc(C)c3)c2C#N)C1` [Example 16, 3-Cyano-2-((E)-3-m-tolyl-allanoylamino)-4,7-dihydro-5H-thieno[2,3-c]pyridine-6-carboxylic acid ethyl ester], the IC50 in assay [1] is not above 2 µM; in assay [2] it was more than 100 µM.

As for `CCOC(=O)N1CCc2c(sc(NC(=O)/C=C/c3ccc(Cl)cc3F)c2C#N)C1` [Example 59, 2-[(E)-3-(4-Chloro-2-fluoro-phenyl)-allanoylamino]-3-cyano-4,7-dihydro-5H-thieno[2,3-c]pyridine-6-carboxylic acid ethyl ester], the IC50 is not above 2 µM in assay [1] and not below 100 µM in assay [2].

With `CCOC(=O)N1CCc2c(sc(NC(=O)/C=C/c3ccc(Cl)s3)c2C#N)C1` [Example 72, 2-[(E)-3-(5-Chloro-thiophen-2-yl)-allanoylamino]-3-cyano-4,7-dihydro-5H-thieno[2,3-c]pyridine-6-carboxylic acid ethyl ester], the IC50 was not above 2 µM in assay [1] and not below 100 µM in assay [2].

As to `COCCC(=O)N1CCc2c(sc(NC(=O)/C=C/c3ccccc3)c2C#N)C1` [Example 177, (E)-N-[3-Cyano-6-(3-methoxy-propanoyl)-4,5,6,7-tetrahydro-thieno[2,3-c]pyridin-2-yl]-3-phenyl-acrylamide], the IC50 was not above 2 µM in assay [1] and not below 100 µM in assay [2].

As to `COCCOC(=O)N1CCc2c(sc(NC(=O)/C=C/c3ccco3)c2C#N)C1` [Example 240, 3-Cyano-2-((E)-3-furan-2-yl-allanoylamino)-4,7-dihydro-5H-thieno[2,3-c]pyridine-6-carboxylic acid 2-methoxy-ethyl ester], the IC50 was not above 2 µM in assay [1] and not below 100 µM in assay [2].
